Values of other authors as cited in patent publication US7122195B2, “Mutant mycobacteria for use in therapy” (priority 2000, dated 2006).

Test system: M. tuberculosis complex

Q: For `Cc1ncc([N+](=O)[O-])n1CCO` [Metronidazole], which “Activity on anaerobic grown M. tuberculosis complex” value is on record?
A: The value was “acts exclusively on anaerobic grown”.

Q: What about the “Effect on growth of aerobic grown cultures” value of the same compound?
A: Its value is “does not affect the growth”.
